From US20220324835A1 (Nurix Therapeutics, Inc., priority 2018, published 2022)

Tests used:
[1] = test system: T-cell; assay: CD25 cell surface staining on T-cells stimulated with anti-CD3 antibody alone (Biological Example 2); type: cell-based, human; settings: T-cell, read-out: CD25 staining Anti-CD3 stimulation; for fold induction at 1 µM: 1 μM Cbl-b inhibitor; for fold induction at 8 µM: 8 μM Cbl-b inhibitor
[2] = test system: T-cell; assay: IL-2 secretion from T-cells stimulated with anti-CD3 antibody alone (Biological Example 2); type: cell-based, human; settings: T-cell, read-out: IL-2 secretion Anti-CD3 stimulation; for fold induction at 1 µM: 1 μM Cbl-b inhibitor; for fold induction at 8 µM: 8 μM Cbl-b inhibitor
[3] = fold change over baseline, primary human total T-cells
[4] = Homo sapiens, fold change over baseline (anti-CD3/anti-CD28 stimulated T-cells without inhibitor)

Compound	fold induction at 1 µM [1, 3]	fold induction at 8 µM [1, 3]	fold induction at 1 µM [2, 3]	fold induction at 8 µM [2, 3]	fold induction at 1 µM [1, 4]	fold induction at 1 µM [2, 4]
Cc1cc(C(=O)Nc2cccc([C@H](C)Sc3nncn3C)c2)nc2ccccc12 [Compound 30, (S)-4-Methyl-N-(3-(1-((4-methyl-4H-1,2,4-triazol-3-yl)thio)ethyl)phenyl)quinoline-2-carboxamide]	0.601 to 0.8	0.801 to 1	0.051 to 0.1	0.101 to 0.15		
C[C@H](Sc1nnc[nH]1)c1cccc(NC(=O)c2cc3ccccc3cn2)c1 [Compound 98, (S)-N-(3-(1-((4H-1,2,4-triazol-3-yl)thio)ethyl)phenyl)isoquinoline-3-carboxamide]	< 0.6	< 0.6	0.051 to 0.1	0.051 to 0.1		
C[C@H](Cc1nncn1C)c1cccc(NC(=O)c2cc(C(C)(C)O)c(Cl)cn2)c1 [Compound 186, (R)-5-chloro-4-(2-hydroxypropan-2-yl)-N-(3-(1-(4-methyl-4H-1,2,4-triazol-3-yl)propan-2-yl)phenyl)picolinamide]	< 0.6	< 0.6	0.051 to 0.1	0.101 to 0.15		
CCn1cnnc1C[C@@H](C)c1cccc(NC(=O)c2cc(C(=O)N3C[C@@H](O)C[C@H]3C)ccn2)c1 [Compound 251, N-(3-((R)-1-(4-ethyl-4H-1,2,4-triazol-3-yl)propan-2-yl)phenyl)-4-((2R,4S)-4-hydroxy-2-methylpyrrolidine-1-carbonyl)picolinamide]	0.601 to 0.8	0.601 to 0.8	0.151 to 0.2	0.151 to 0.2		
Cn1cnnc1C(F)(F)C(C)(F)c1cccc(N2Cc3c(cccc3C(F)(F)F)C2=O)c1 (racemic) [Compound 296, 2-(3-(1,1,2-trifluoro-1-(4-methyl-4H-1,2,4-triazol-3-yl)propan-2-yl)phenyl)-4-(trifluoromethyl)isoindolin-1-one]	0.601 to 0.8	0.601 to 0.8	> 0.201	> 0.201		
C[C@H](Sc1nncn1C)c1cccc(NC(=O)c2cc(Cl)cc(C(F)(F)F)n2)c1 [Compound 68, (S)-4-chloro-N-(3-(1-((4-methyl-4H-1,2,4-triazol-3-yl)thio)ethyl)phenyl)-6-(trifluoromethyl)picolinamide]	0.601 to 0.8	0.801 to 1	< 0.05	0.051 to 0.1		
Cc1ccc(C(=O)Nc2cccc([C@H](C)Cc3nnc[nH]3)c2)nc1C1CC1 [Compound 212, (R)-N-(3-(1-(4H-1,2,4-triazol-3-yl)propan-2-yl)phenyl)-6-cyclopropyl-5-methylpicolinamide]	< 0.6	< 0.6	< 0.05	< 0.05		
C[C@H](Sc1nncn1C)c1cccc(NC(=O)c2cc(C(C)(C)O)c(Cl)cn2)c1 [Compound 55, (S)-5-chloro-4-(2-hydroxypropan-2-yl)-N-(3-(1-((4-methyl-4H-1,2,4-triazol-3-yl)thio)ethyl)phenyl)picolinamide]	< 0.6	0.601 to 0.8	< 0.05	< 0.05		
C[C@H](Cc1nncn1C)c1cccc(N2Cc3c(ccnc3C3CCC3)C2=O)c1 [Compound 258, (R)-4-cyclobutyl-2-(3-(1-(4-methyl-4H-1,2,4-triazol-3-yl)propan-2-yl)phenyl)-2,3-dihydropyrrolo[3,4-c]pyridin-1-one]	> 1	> 1	0.051 to 0.1	0.101 to 0.15		
Cc1ccc(C(=O)Nc2cccc([C@H](C)Sc3nncn3C)c2)nc1C(F)(F)F [Compound 61, (S)-5-methyl-N-(3-(1-((4-methyl-4H-1,2,4-triazol-3-yl)thio)ethyl)phenyl)-6-(trifluoromethyl)picolinamide]	0.601 to 0.8	> 1	< 0.05	< 0.05		
C[C@H](Cc1nncn1C)c1cccc(NC(=O)c2cc(S(N)(=O)=O)cc(C(F)(F)F)n2)c1 [Compound 200, (R)-N-(3-(1-(4-methyl-4H-1,2,4-triazol-3-yl)propan-2-yl)phenyl)-4-sulfamoyl-6-(trifluoromethyl)picolinamide]	0.801 to 1	> 1	< 0.05	0.051 to 0.1		
C[C@H](Cc1nncn1C)c1cc(NCCO)nc(N2Cc3c(cccc3C(F)(F)F)C2=O)c1 [Compound 357, (R)-2-(6-(2-hydroxyethylamino)-4-(1-(4-methyl-4H-1,2,4-triazol-3-yl)propan-2-yl)pyridin-2-yl)-4-(trifluoromethyl)isoindolin-1-one]	0.601 to 0.8	> 1	0.051 to 0.1	0.151 to 0.2		
C[C@H](Sc1nncn1C)c1ccc(F)c(NC(=O)c2cccc(C(F)(F)F)n2)c1 [Compound 95a, (S)-N-(2-fluoro-5-(1-((4-methyl-4H-1,2,4-triazol-3-yl)thio)ethyl)phenyl)-6-(trifluoromethyl)picolinamide]	< 0.6	< 0.6	< 0.05	0.051 to 0.1		
Cn1cnnc1CC(C)(F)c1cccc(N2Cc3c(cccc3C(F)(F)F)C2=O)c1 (racemic) [Compound 298, 2-(3-(2-fluoro-1-(4-methyl-4H-1,2,4-triazol-3-yl)propan-2-yl)phenyl)-4-(trifluoromethyl)isoindolin-1-one]	0.601 to 0.8	0.601 to 0.8	0.051 to 0.1	0.101 to 0.15		
Cc1cc(C(=O)Nc2cccc([C@@](C)(F)C(F)(F)c3nncn3C)c2)nc(C2CC2)n1 [Compound 344, (R)-2-Cyclopropyl-6-methyl-N-(3-(1,1,2-trifluoro-1-(4-methyl-4H-1,2,4-triazol-3-yl)propan-2-yl)phenyl)pyrimidine-4-carboxamide]	0.801 to 1	> 1	0.101 to 0.15	> 0.201		
C[C@H](Sc1nncn1C)c1cccc(NC(=O)c2cc(C(C)(C)O)cc(C(F)(F)F)n2)c1 [Compound 85, 4-(1-hydroxy-1-methyl-ethyl)-N-[3-[(1S)-1-[(4-methyl-1,2,4-triazol-3-yl)sulfanyl]ethyl]phenyl]-6-(trifluoromethyl)pyridine-2-carboxamide]	0.601 to 0.8	> 1	< 0.05	< 0.05		
Cc1cccc2nc(C(=O)Nc3cccc([C@H](C)Sc4nncn4C)c3)ccc12 [Compound 48, 5-Methyl-N-[3-[(1S)-1-[(4-methyl-4H-1,2,4-triazol-3-yl)sulfanyl]ethyl]phenyl]quinoline-2-carboxamide]	0.801 to 1	0.801 to 1	< 0.05	0.101 to 0.15		
C[C@H](Cc1nncn1C)c1cccc(NC(=O)c2ccnc(C(F)(F)F)n2)c1 [Compound 187, (R)-N-(3-(1-(4-methyl-4H-1,2,4-triazol-3-yl)propan-2-yl)phenyl)-2-(trifluoromethyl)pyrimidine-4-carboxamide]	0.801 to 1	> 1	> 0.201	> 0.201		
C[C@H](Sc1nncn1C)c1cccc(N2Cc3c(cccc3C(F)(F)F)C2=O)c1 [Compound 166a, (S)-2-(3-(1-((4-methyl-4H-1,2,4-triazol-3-yl)thio)ethyl)phenyl)-4-(trifluoromethyl)isoindolin-1-one]	0.601 to 0.8	0.801 to 1	< 0.05	< 0.05		
C[C@H](Cc1nncn1C)c1cccc(NC(=O)c2cccc(C(F)(F)CO)n2)c1 [Compound 188, (R)-6-(1,1-difluoro-2-hydroxyethyl)-N-(3-(1-(4-methyl-4H-1,2,4-triazol-3-yl)propan-2-yl)phenyl)picolinamide]	< 0.6	< 0.6	< 0.05	0.051 to 0.1		
C[C@H](Cc1nncn1C)c1cc(-c2cn[nH]c2)nc(N2Cc3c(cccc3C(F)(F)F)C2=O)c1 [Example 684, (R)-2-(4-(1-(4-methyl-4H-1,2,4-triazol-3-yl)propan-2-yl)-6-(1H-pyrazol-4-yl)pyridin-2-yl)-4-(trifluoromethyl)isoindolin-1-one]					< 0.6	0.051 to 0.1
Cc1ccc(C(=O)Nc2cc([C@H](C)Sc3nncn3C)ccn2)nc1C1CC1 [Compound 113, (S)-6-cyclopropyl-5-methyl-N-(4-(1-((4-methyl-4H-1,2,4-triazol-3-yl)thio)ethyl)pyridin-2-yl)picolinamide]	< 0.6	< 0.6	< 0.05	< 0.05		
C[C@H](Sc1nncn1C)c1cccc(NC(=O)c2cccc(S(C)(=O)=O)n2)c1 [Compound 80, (S)-N-(3-(1-((4-methyl-4H-1,2,4-triazol-3-yl)thio)ethyl)phenyl)-6-(methylsulfonyl)picolinamide]	< 0.6	< 0.6	< 0.05	< 0.05		
Cc1ccc(C(=O)Nc2cccc(C(C)C(F)(F)c3nncn3C)c2)nc1C1CC1 (stereo not shown) [Compound 286, 6-cyclopropyl-N-(3-(1,1-difluoro-1-(4-methyl-4H-1,2,4-triazol-3-yl)propan-2-yl)phenyl)-5-methylpicolinamide]	0.801 to 1	> 1	0.051 to 0.1	0.101 to 0.15		
